Laboratory results from patent publication US12329788B2, “Synbiotic compositions” (Evonik Operations GmbH, priority 2018, dated 2025).
Where a SMILES comes first, the peptide text is derived from it.

Key:
[1] = system: Clostridium XI cluster; assay: i-screen microbiota composition by 16S rRNA V4 sequencing, Clostridium XI; assay type: cell-based, human; conditions: for Clostridium_XI relative abundance: 24 h SIEM, amino acids 3.5 mM, dipeptides 7 mM; for effect on Clostridia XI group: Example 8, dipeptides 7 mM, 0% O2
Source text: (§1) To determine the effect of the probiotic strains Bacillus subtilis DSM 32315, Bacillus subtilis DSM 32540, Bacillus licheniformis DSM 32314 and Bacillus amyloliquefaciens CECT 5940 on adult colonic microbiota, an intestinal screening model was used (i-screen, TNO, the Netherlands). Therefore the i-screen model was inoculated with standard human adult fecal microbiota material, which consisted of pooled fecal donations from 6 healthy adult volunteers (Caucasian, European lifestyle and nutrition). The fecal material was mixed and grown in a fed-batch fermenter for 40 hours to create a standardized microbiota as described previously. These standard adult gut microbiota sets were stored at −80° C. in 12% glycerol.
(§2) The intestinal microbiota was cultured in vitro in modified standard ileal efflux medium (SIEM), the composition of which was described by and modified as follows: 0.047 g/l pectin, 0.047 g/l xylan, 0.047 g/l arabinogalactan, 0.047 g/l amylopectin, 0.392 g/l starch, 24.0 g/l casein, 24.0 Bacto pepton, 0.4 ox-bile and 0.2 g/l cysteine. All components were supplied by Trititium Microbiology (Veldhoven, The Netherlands). The pH of the medium was adjusted to 5.8.
For the i-screen fermentations, the precultured standardized fecal inoculum was diluted 50 times in 1350 μl modified SIEM. All experiments have been carried out in triplicates. The strains Bacillus subtilis (DSM 32315), Bacillus subtilis DSM 32540, Bacillus licheniformis DSM 32314 and Bacillus amyloliquefaciens CECT 5940 were precultured separately in 50 ml LBKelly medium, for about 16 h. Incubation was done in shaking flasks at 37° C. under aerobic conditions. After incubation, bacterial density was determined by optical density measurement at 600 nm. A final stock solution of 1×10^10 cells/ml was prepared in 1 ml buffer solution (0.1 mM MES pH 6). […]
(§3) DNA extraction for the sequencing of 16S rRNA coding genes was performed as described by Ladirat et al. (2013) with some minor modifications. Approximately 100 μl of the culture materials were added to the wells of a 96 well plate containing per well 300 μl of lysis buffer (Mag Mini DNA Isolation Kit, LGC ltd, UK), 500 μl zirconium beads (0.1 mm; BioSpec products, Bartlesville, OK, USA) and 500 μl of phenol saturated with Tris-HCI (pH 8.0; Carl Roth GMBH, Germany). The 96 well plate was placed in a Mini-BeadBeater-96 (BioSpec products, Bartlesville, Okla, USA) for 2 min at 2100 oscillations/min. DNA was subsequently purified using the Agowa Mag Mini DNA Isolation Kit according to the manufacturer recommendations. Extracted DNA was eluted in a final volume of 60 μl buffer.
(§4) The microbiota composition was analyzed by 16S rRNA gene amplicon sequencing of the V4 Hypervariable Region. This was Achieved Through a Series of Steps:
(§5) Subsequently, PCR amplicons of the V4 hypervariable region of the 16S rRNA gene were generated for the individual samples by amplification of […] of DNA as described by (2013), using F515/R806 primers. Primers included Illumina adapters and a unique 8-nt sample index sequence key. A mock control was included for technical quality control. The amount of amplified DNA per sample was quantified using the dsDNA 910 Reagent Kit on the Fragment Analyzer (Advanced Analytical). The amplicon libraries were pooled in equimolar amounts and purified from 1,2% agarose gel using the Gel Extraction Kit (Qiagen). The Library was quantified using the Quant-iT™ PicoGreen® dsDNA Assay Kit (Thermo Fisher Scientific). Paired-end sequencing of amplicons was conducted on the Illumina MiSeq platform (Illumina, Eindhoven, The Netherlands).
(§6) The sequence data was processed with Mothur v.1.36.1 [26] in line with the mothur MiSeq SOP [24].

[2] = system: Clostridium XIVa cluster; assay: i-screen microbiota composition by 16S rRNA V4 sequencing, Clostridium XIVa; assay type: cell-based, human; conditions: 24 h SIEM, amino acids 3.5 mM, dipeptides 7 mM
Source text: as §1, §2
For the i-screen fermentations, the precultured standardized fecal inoculum was diluted 50 times in 1350 μl modified SIEM. All experiments have been carried out in triplicates. The strains Bacillus subtilis (DSM 32315), Bacillus subtilis DSM 32540, Bacillus licheniformis DSM 32314 and Bacillus amyloliquefaciens CECT 5940 were precultured separately in 50 ml LBKelly medium, for about 16 h. Incubation was done in shaking flasks at 37° C. under aerobic conditions. After incubation, bacterial density was determined by optical density measurement at 600 nm. A final stock solution of 1×10^10 cells/ml was prepared in 1 ml buffer solution (0.1 mM MES pH 6). The suspension of each strain was introduced into the i-screen to a final level of about 10^9 cells/ml, respectively
The i-screen incubation was performed under following gas conditions: 0.2% O2, 0.2% CO2, 10% H2, 89.6% N2.
as §3, §4, §5, §6

[3] = infused, post-operative anaesthetized dogs; cited from earlier work
[4] = oral supplementation, guinea-pigs treated with methotrexate; cited from earlier work
[5] = system: gut microbiota; conditions: oral supplementation, overweight humans; cited from earlier work
[6] = microbiota + CECT 5940 (first group so headed, r13-r15)
[7] = microbiota + CECT 5940 (second group so headed, r16-r18)

Structure (SMILES)	Clostridium_XI relative abundance [1, 6]	Clostridium_XI relative abundance [1, 7]	Clostridium_XI relative abundance ([1]; microbiota + DSM 32315)	Clostridium_XI relative abundance ([1]; microbiota, no probiotic cells)	Clostridium_XIVa relative abundance [2, 6]	Clostridium_XIVa relative abundance [2, 7]	Clostridium_XIVa relative abundance ([2]; microbiota + DSM 32315)	Clostridium_XIVa relative abundance ([2]; microbiota, no probiotic cells)	effect on Clostridia XI group [1]	extraction of the amino acids by skeletal muscle [3]	mortality [4]	Firmicutes to Bacteriodetes ratio [5]
CC(=O)N[C@@H](C)C(=O)N[C@@H](CCC(N)=O)C(=O)O [Ac-Ala-Gln] (Ac-Ala-Gln-OH)	21%	20%	31%	27%	1%	4%	2%	1%	–	–	–	–
C[C@H](N)C(=O)N[C@@H](CCC(N)=O)C(=O)O [Ala-Gln, Alanine-Glutamine] (H-Ala-Gln-OH)	0%	0%	0%	0%	10%	6%	4%	2%	reduced the Clostridia XI group almost completely	extracted by skeletal muscle almost as well as from mixtures of alanine and glutamine	–	–
NC(=O)CC[C@H](N)C(=O)O [Gln, glutamine, reference compound]	20%	21%	24%	28%	1%	9%	2%	1%	–	–	reduced mortality	reducing the Firmicutes to Bacteriodetes ratio
N[C@@H](CCC(=O)O)C(=O)O [Glu, glutamic acid, reference compound]	26%	18%	25%	27%	1%	1%	3%	1%	–	–	–	–
NCC(=O)O.N[C@@H](CCC(=O)O)C(=O)O [Gly-Glu, Glycine-Glutamic acid]	0%	0%	0%	0%	9%	10%	8%	4%	reduced the Clostridia XI group almost completely	–	–	–
